{"source": "patent US20060241067A1", "about": "“Methods For inhibiting angiogenesis, cell migration, cell adhesion, and cell survival” (priority 2002, published 2006)", "key": {"[1]": {"test_system": "Human umbilical vein endothelial cells (HUVEC)", "test": "Cell adhesion (attachment) assay on ECM substrates", "assay_type": "cell-based", "conditions": "cAMP treatment or PKA catalytic subunit transfection", "experimental": "(§1) Human umbilical vein endothelial cells (HUVEC) were grown in Endothelial Growth Medium (containing 2% fetal bovine serum, bFGF and VEGF) (Clonetics, San Diego, Calif.). To render HUVECs quiescent for Rac and/or Rho assays, monolayers of endothelial cells were incubated for 18 hrs in Endothelial Basal Medium supplemented with 0.1% serum (Clonetics). Cell migration and adhesion assays on ECM substrates were performed as previously described in Kim et al. (S. Kim et al., Amer. J. Biol. Chem., 275:33920-33928 (2000); and S. Kim et al., Amer. J. Path., 156:1345-1362 (2000))."}, "HUVECS": {"test_system": "HUVECS", "test": "Time lapse videomicroscopy of migrating endothelial cells", "assay_type": "cell-based, human", "conditions": "500 μM dibutyryl-cAMP, vitronectin", "experimental": "2.5-cm-diameter glass coverslips were coated with 5 μg/ml vitronectin for 1 hour at 37° C., then blocked with 3% bovine serum albumin for 2 hours. HUVECs were removed from culture dishes by trypsizination, and plated on coverslips for 48 hours. Coverslips were then placed on the microscope stage (Zeiss, Oberkochen, Germany) connected to a Charged Coupled Device (CCD) camera and viewed at a 200× magnification in bright field. Cells on the coverslips were kept at 37° C. with 5% CO2, bathed in culture media with 20 mM HEPES (pH7.4). Images were recorded using IP Lab software (Webster, N.Y.) at 1-minute intervals for 60 minutes. Dibutyryl-cAMP was then directly added into the culture medium at concentration of 500 μM. Images of cells were then recorded for an additional 60 minutes at 1-minute intervals. Cell shape and migration distance changes were quantified using IMAQ Vision Builder software (National Instruments Corporation, Austin, Tex.). Cell shape and nuclear positions were measured at 10-minute time points. Ellipse Ratio was used as a parameter for polarity. As cell shape approaches a circle, the Ellipse Ratio approaches the number one. Distance migrated was determined by measuring the distance nuclei moved in ten minute intervals. […] Images were recorded using IP Lab Spectrum software (Webster, N.Y.) at 1-minute intervals for 60 minutes. […]"}, "protein kinase A": {"test_system": "protein kinase A", "test": "PKA activity assay in HUVECs", "assay_type": "cell-based, human", "conditions": "for PKA activity in endothelial cells: 10 μM PTHrP or 250 μM dibutyryl cAMP", "experimental": "PKA activity was measured in HUVECs essentially as previously described in Kim et al (S. Kim et al., Amer. J. Biol. Chem., 275:33920-33928 (02000)). HUVECs were placed in suspension, allowed to attach to ECM protein coated plates in the absence or presence of anti-integrin antibodies or were treated with 10 μM PTHrP and/or 250 μM cAMP. PKA activity was measured at various times from 0-4 hrs (e.g., 2-30 min).\nPlates were washed and blocked in 3% bovine serum albumin for 1 hour at 37° C. HUVECS were trypsinized and resuspended in adhesion buffer (Hanks balanced salt solution supplemented with 10 mM HEPES, pH 7.4, 2 mM MgCl2, 2 mM CaCl2, 0.2 mM MnCl2, 1% BSA. Cells were plated on matrix protein coated plates in culture medium or in the presence of 25 μg/ml anti-α5β1, anti-αvβ3 or anti-α2β1 antibodies for various times from 0 minutes to 4 hours. Plates were washed with phosphate buffered saline and cells were extracted with cold extraction buffer (50 mM Tris, pH 7.5, 5 mM EDTA, 25 μg/ml aprotinin and 25 μg/ml leupeptin). Protein Kinase A activity was assessed using a kit from Gibco BRL. Briefly, equal volumes of lysate and reaction mixture containing final concentrations of 50 mM Tris, pH 7.5, 10 mM MgCl2, 0.25 mg/ml BSA, 50 μM Kemptide (a protein kinase A substrate), 3000 Ci/mmol (γ^32 P) ATP and 100 μM ATP were combined for 5 minutes at 30° C. Total PKA in each sample was measured by performing the assay in the presence of 10 μM cAMP. Background PKA activity in test and total PKA samples were determined by performing the assay in the presence of a PKA inhibitor peptide, PKI (6-22) amide. Twenty μl samples of reaction mixtures were spotted onto phosphocellulose discs and washed repeatedly with 1% (v/v) phosphoric acid in water. Incorporated radioactivity was determined by scintillation counting. Activated PKA was calculated from the ratio of pmol/min test sample PKA to pmol/min total PKA. PKA activity in triplicate samples was measured and experiments were repeated at least three times.\nIn another embodiment, PKA assays were performed with a kit from Calbiochem (San Diego, Calif.). Cell lysates were incubated in ELISA plates coated with a PKA peptide substrate, then incubated with anti-phosphoserine antibodies. Bound antibody was detected after incubation with anti-rabbit IgG-horse radish peroxidase. Statistical analyses were performed using Student's t-test."}, "Rac": {"test_system": "Rac", "test": "Rac activity assay (GST-PBD affinity precipitation)", "assay_type": "cell-based, human", "conditions": "vitronectin 30 minutes, cAMP, PTHrP or transfection", "experimental": "as §1\nRho activity was determined by measuring the amount of Rho affinity bound to GST-Rhotekin binding domain (RBD). Levels of active Rho were determined by Western blotting affinity precipitated protein with anti-Rho antibodies while total Rho levels were measured by immunoblotting total cell lysates with anti-Rho. Rac activity was determined by measuring the amount of Rac affinity precipitated by the GST-p21-activated protein binding domain, PBD (Upstate Biotechnology, Syracuse, N.Y.). Levels of active Rac were determined by immunoblotting affinity precipitated protein with anti-Rac antibodies. […] Total Rac levels were measured by immunoblotting total cell lysates with anti-Rac."}, "[2]": {"conditions": "after stimulation of endothelial cells"}}}
{"smiles": "CCCC(=O)Nc1ncnc2c1ncn2[C@@H]1O[C@@H]2COP(=O)(O)O[C@H]2[C@H]1OC(=O)CCC", "note": "[dibutyryl cAMP]", "values": [{"measurement": "cell attachment to vitronectin", "setting": "[1]", "result": "enhanced cell attachment to vitronectin"}, {"measurement": "cell shape (polarity)", "setting": "HUVECS", "result": "rapidly induces a flattening of the cell shape"}, {"measurement": "endothelial cell migration (distance moved by nuclei)", "setting": "HUVECS", "result": "rapidly inhibits endothelial cell migration"}, {"measurement": "PKA activity in endothelial cells", "setting": "protein kinase A", "result": "rapidly stimulate PKA activity in endothelial cells"}, {"measurement": "PKA activity in endothelial cells", "setting": "protein kinase A; listed as cell permeable cAMP", "result": "activates PKA"}, {"measurement": "time at which PKA activation is detected", "setting": "protein kinase A; [2]", "result": 2, "unit": "min"}, {"measurement": "time of maximal PKA activity", "setting": "protein kinase A; [2]", "result": 15, "unit": "min"}, {"measurement": "Rac activation (RacGTP to total Rac)", "setting": "Rac", "result": "blocked"}, {"measurement": "Rac activation (RacGTP to total Rac)", "setting": "Rac; listed as cell permeable cAMP", "result": "inhibits Rac activation"}]}
